Reference: ChEMBL document CHEMBL4196004, “Discovery of novel mifepristone derivatives via suppressing KLF5 expression for the treatment of triple-negative breast cancer” (Eur J Med Chem, 2018)
Activity calls are given as the source filed them. The rule behind the calls is not given here.

Experiments:
SUM149PT [1] = assay: Antiproliferative activity against human SUM149PT cells after 48 hrs by SRB assay; format: functional, cell-based
HCC1937 [2] = assay: Antiproliferative activity against human HCC1937 cells after 48 hrs by SRB assay; format: functional, cell-based; conditions: HCC1937, 48 h
SUM149PT [3] = assay: Cell cycle arrest in human SUM149PT cells assessed as increase in cells at G1 phase at 20 uM after 24 hrs by propidium iodide staining-based flow cytometric analysis; format: functional
Rattus norvegicus [4] = assay: AUC (0 to t) in Sprague-Dawley rat at 30 mg/kg administered via oral gavage by HPLC analysis; format: ADME, organism-based; conditions: in vivo
Mus musculus [5] = assay: Toxicity in Balb/C nude mouse implanted with human UM1 cells assessed as loss of body weight at 1 mg, ip qd for 4 weeks; format: organism-based; conditions: in vivo, 672 h
SUM149PT [6] = assay: Inhibition of KLF5 expression levels in human SUM149PT cells after 24 hrs by Western blot analysis; format: functional, cell-based
HCC1937 [7] = assay: Induction of PARP cleavage in human HCC1937 cells after 24 hrs by Western blot analysis; format: functional, cell-based
[8] = Elimination half life in Sprague-Dawley rat at 30 mg/kg administered via oral gavage by HPLC analysis; format: ADME, organism-based; conditions: in vivo, read-out: beta t1/2 (converted)
[9] = Tmax in Sprague-Dawley rat at 30 mg/kg administered via oral gavage by HPLC analysis; format: ADME, organism-based; conditions: in vivo
SUM149PT [10] = assay: Cell cycle arrest in human SUM149PT cells assessed as decrease in cells at S phase at 20 uM after 24 hrs by propidium iodide staining-based flow cytometric analysis; format: functional
Homo sapiens = assay: Antitumor activity against human UM1 cells implanted in Balb/C nude mouse at 1 mg, ip qd for 4 weeks; format: functional, organism-based
Rattus norvegicus [11] = assay: AUC (0 to infinity) in Sprague-Dawley rat at 30 mg/kg administered via oral gavage by HPLC analysis; format: ADME, organism-based; set-up: dose 30 mg/kg, route oral, time infinity; conditions: in vivo
[12] = Cmax in Sprague-Dawley rat at 30 mg/kg administered via oral gavage by HPLC analysis; format: ADME, organism-based; set-up: dose 30 mg/kg, route oral; conditions: in vivo
SUM149PT [13] = assay: Induction of PARP cleavage in human SUM149PT cells after 24 hrs by Western blot analysis; format: functional, cell-based
HCC1937 [14] = assay: Inhibition of KLF5 expression levels in human HCC1937 cells after 24 hrs by Western blot analysis; format: functional, cell-based
Mus musculus [15] = assay: Acute toxicity in KM mouse assessed as behaviour change at 400 mg/kg, po administered as single dose; format: organism-based; conditions: in vivo
Mus musculus [16] = assay: Acute toxicity in KM mouse assessed as loss of body weight at 400 mg/kg, po administered as single dose and measured every 3 days; format: organism-based; conditions: in vivo, 72 h
SUM149PT [17] = assay: Cell cycle arrest in human SUM149PT cells assessed as decrease in cells at S phase at 5 to 10 uM after 24 hrs by propidium iodide staining-based flow cytometric analysis; format: functional
SUM149PT [18] = assay: Cell cycle arrest in human SUM149PT cells assessed as increase in cells at G1 phase after 24 hrs by propidium iodide staining-based flow cytometric analysis; format: functional

IC50 (HCC1937 [2])	SMILES	IC50 (SUM149PT [1])	further results
9.7 µM	CC#C[C@]1(O)CC[C@H]2[C@@H]3CCC4=CC(=O)CCC4=C3[C@@H](c3ccc(N(C)C(=O)c4ccc(Cl)cc4)cc3)C[C@@]21C	16.2 µM	–
> 20 µM	CC#C[C@]1(O)CC[C@H]2[C@@H]3CCC4=CC(=O)CCC4=C3[C@@H](c3ccc(N(C)C(=O)c4ccc(-c5ccccc5)cc4)cc3)C[C@@]21C	16 µM	–
9 µM	CC#C[C@]1(O)CC[C@H]2[C@@H]3CCC4=CC(=O)CCC4=C3[C@@H](c3ccc(N(C)C(=O)Cc4ccccc4)cc3)C[C@@]21C	7 µM	–
6.1 µM	CC#C[C@]1(O)CC[C@H]2[C@@H]3CCC4=CC(=O)CCC4=C3[C@@H](c3ccc(N(C)C(=O)c4ccc5ccccc5c4)cc3)C[C@@]21C	5 µM	–
9 µM	CC#C[C@]1(O)CC[C@H]2[C@@H]3CCC4=CC(=O)CCC4=C3[C@@H](c3ccc(N(C)C(=O)c4cccc(C)c4)cc3)C[C@@]21C	5 µM	–
10.6 µM	CC#C[C@]1(O)CC[C@H]2[C@@H]3CCC4=CC(=O)CCC4=C3[C@@H](c3ccc(N(C)C(=O)c4cccc(Cl)c4)cc3)C[C@@]21C	14.3 µM	–
0.44 µM	COc1cccc2c1C(=O)c1c(O)c3c(c(O)c1C2=O)C[C@@](O)(C(=O)CO)C[C@@H]3O[C@H]1C[C@H](N)[C@H](O)[C@H](C)O1 [DOXORUBICIN]	0.36 µM	–
17.4 µM	CC#C[C@]1(O)CC[C@H]2[C@@H]3CCC4=CC(=O)CCC4=C3[C@@H](c3ccc(N(C)C(=O)c4ccccc4Cl)cc3)C[C@@]21C	> 20 µM	–
9.1 µM	CC#C[C@]1(O)CC[C@H]2[C@@H]3CCC4=CC(=O)CCC4=C3[C@@H](c3ccc(N(C)C(=O)c4ccc(C)cc4)cc3)C[C@@]21C	5 µM	–
> 20 µM	CC#C[C@]1(O)CC[C@H]2[C@@H]3CCC4=CC(=O)CCC4=C3[C@@H](c3ccc(N(C)S(=O)(=O)c4ccccc4)cc3)C[C@@]21C	> 20 µM	–
> 20 µM	CC#C[C@]1(O)CC[C@H]2[C@@H]3CCC4=CC(=O)CCC4=C3[C@@H](c3ccc(NC)cc3)C[C@@]21C [DESMETHYLMIFEPRISTONE]	> 20 µM	–
6.1 µM	CC#C[C@]1(O)CC[C@H]2[C@@H]3CCC4=CC(=O)CCC4=C3[C@@H](c3ccc(N(C)C(=O)c4ccc(C)c(C)c4)cc3)C[C@@]21C	5.6 µM	–
4.2 µM	CC#C[C@]1(O)CC[C@H]2[C@@H]3CCC4=CC(=O)CCC4=C3[C@@H](c3ccc(N(C)C(=O)c4ccc(C(C)C)cc4)cc3)C[C@@]21C	4.2 µM	–
4.2 µM	CC#C[C@]1(O)CC[C@H]2[C@@H]3CCC4=CC(=O)CCC4=C3[C@@H](c3ccc(N(C)C(=O)c4ccc(C(C)(C)C)cc4)cc3)C[C@@]21C	3.5 µM	–
> 20 µM	CC#C[C@]1(O)CC[C@H]2[C@@H]3CCC4=CC(=O)CCC4=C3[C@@H](c3ccc(N(C)C(C)=O)cc3)C[C@@]21C	> 20 µM	–
> 20 µM	CC#C[C@]1(O)CC[C@H]2[C@@H]3CCC4=CC(=O)CCC4=C3[C@@H](c3ccc(N(C)C)cc3)C[C@@]21C [MIFEPRISTONE]	15 µM	Activity (SUM149PT [3]): inactive; AUCt (Rattus norvegicus [4]): 1.97 mg/L/h; Activity (Mus musculus [5]): Non-Toxic; inhibition (SUM149PT [6]): Dose-dependent effect; Activity (HCC1937 [7]): Dose-dependent effect; half-life [8]: 3.02 h; Tmax [9]: 3.38 h; Activity (SUM149PT [10]): Active; Activity (Homo sapiens): Active; AUC (Rattus norvegicus [11]): 2420 ng·h/mL; Cmax [12]: 360 ng/mL; Activity (SUM149PT [13]): Dose-dependent effect; inhibition (HCC1937 [14]): Dose-dependent effect
> 20 µM	CC#C[C@]1(O)CC[C@H]2[C@@H]3CCC4=CC(=O)CCC4=C3[C@@H](c3ccc(N(C)C(=O)c4ccncc4)cc3)C[C@@]21C	> 20 µM	–
14.7 µM	CC#C[C@]1(O)CC[C@H]2[C@@H]3CCC4=CC(=O)CCC4=C3[C@@H](c3ccc(N(C)C(=O)c4ccccc4)cc3)C[C@@]21C	10.5 µM	–
> 20 µM	CC#C[C@]1(O)CC[C@H]2[C@@H]3CCC4=CC(=O)CCC4=C3[C@@H](c3ccc(N(C)C(=O)c4ccccn4)cc3)C[C@@]21C	> 20 µM	–
> 20 µM	CC#C[C@]1(O)CC[C@H]2[C@@H]3CCC4=CC(=O)CCC4=C3[C@@H](c3ccc(N(C)S(=O)(=O)c4ccc(C)cc4)cc3)C[C@@]21C	> 20 µM	–

Further lines, the molecule ahead of its results:

SMILES	IC50 (HCC1937 [2])	IC50 (SUM149PT [1])	further results
CC#C[C@]1(O)CC[C@H]2[C@@H]3CCC4=CC(=O)CCC4=C3[C@@H](c3ccc(N(C)C(=O)c4cccc(OC)c4)cc3)C[C@@]21C	–	18 µM	–
CC#C[C@]1(O)CC[C@H]2[C@@H]3CCC4=CC(=O)CCC4=C3[C@@H](c3ccc(N(C)C(=O)c4ccc(Cl)c(C(F)(F)F)c4)cc3)C[C@@]21C	–	> 20 µM	–
CC#C[C@]1(O)CC[C@H]2[C@@H]3CCC4=CC(=O)CCC4=C3[C@@H](c3ccc(N(C)C(=O)c4ccc(OC)cc4)cc3)C[C@@]21C	–	12 µM	–
CC#C[C@]1(O)CC[C@H]2[C@@H]3CCC4=CC(=O)CCC4=C3[C@@H](c3ccc(N(C)C(=O)c4ccc(OC)c(Cl)c4)cc3)C[C@@]21C	–	> 20 µM	–
CC#C[C@]1(O)CC[C@H]2[C@@H]3CCC4=CC(=O)CCC4=C3[C@@H](c3ccc(N(C)C(=O)c4ccc(C)c(Cl)c4)cc3)C[C@@]21C	–	4.7 µM	–
CC#C[C@]1(O)CC[C@H]2[C@@H]3CCC4=CC(=O)CCC4=C3[C@@H](c3ccc(N(C)C(=O)c4ccc(Cl)c(F)c4)cc3)C[C@@]21C	–	> 20 µM	–
CC#C[C@]1(O)CC[C@H]2[C@@H]3CCC4=CC(=O)CCC4=C3[C@@H](c3ccc(N(C)C(=O)c4ccccc4OC)cc3)C[C@@]21C	–	> 20 µM	–
CC#C[C@]1(O)CC[C@H]2[C@@H]3CCC4=CC(=O)CCC4=C3[C@@H](c3ccc(N(C)C(=O)c4cccs4)cc3)C[C@@]21C	–	12.5 µM	–
CC#C[C@]1(O)CC[C@H]2[C@@H]3CCC4=CC(=O)CCC4=C3[C@@H](c3ccc(N(C)C(=O)c4nccs4)cc3)C[C@@]21C	–	> 20 µM	–
CC#C[C@]1(O)CC[C@H]2[C@@H]3CCC4=CC(=O)CCC4=C3[C@@H](c3ccc(N(C)C(=O)c4cc(Cl)ccc4F)cc3)C[C@@]21C	–	> 20 µM	–
CC#C[C@]1(O)CC[C@H]2[C@@H]3CCC4=CC(=O)CCC4=C3[C@@H](c3ccc(N(C)C(=O)c4cc(Cl)cc(Cl)c4)cc3)C[C@@]21C	–	9 µM	–
CC#C[C@]1(O)CC[C@H]2[C@@H]3CCC4=CC(=O)CCC4=C3[C@@H](c3ccc(N(C)C(=O)c4cnccn4)cc3)C[C@@]21C	–	> 20 µM	–
CC#C[C@]1(O)CC[C@H]2[C@@H]3CCC4=CC(=O)CCC4=C3[C@@H](c3ccc(N(C)C(=O)c4cncs4)cc3)C[C@@]21C	–	> 20 µM	–
CC#C[C@]1(O)CC[C@H]2[C@@H]3CCC4=CC(=O)CCC4=C3[C@@H](c3ccc(N(C)C(=O)c4ccc(Cl)c(Cl)c4)cc3)C[C@@]21C	7.9 µM	3.6 µM	Activity (Mus musculus [15]): Non-Toxic; AUCt (Rattus norvegicus [4]): 2.45 mg/L/h; Activity (Mus musculus [16]): Non-Toxic; Activity (Mus musculus [5]): Non-Toxic; inhibition (SUM149PT [6]): Dose-dependent effect; Activity (HCC1937 [7]): Dose-dependent effect; half-life [8]: 2.88 h; Tmax [9]: 2.17 h; Activity (Homo sapiens): Active; AUC (Rattus norvegicus [11]): 2910 ng·h/mL; Cmax [12]: 550 ng/mL; Activity (SUM149PT [13]): Dose-dependent effect; Activity (SUM149PT [17]): Active; Activity (SUM149PT [18]): Dose-dependent effect; inhibition (HCC1937 [14]): Dose-dependent effect
CC#C[C@]1(O)CC[C@H]2[C@@H]3CCC4=CC(=O)CCC4=C3[C@@H](c3ccc(N(C)C(=O)c4ccc(F)c(Cl)c4)cc3)C[C@@]21C	–	9 µM	–
